Measurements as given in US20180201592A1, “2-AMINO-1,3,4-THIADIAZINE AND 2-AMINO-1,3,4-OXADIAZINE BASED ANTIFUNGAL AGENTS” (F2G Limited, priority 2015, published 2018).

Experiments:
Settings in all cases: banded MIC grade
Aspergillus fumigatus = assay: Minimum inhibitory concentration, YAG medium; assay type: cell-based
In short: (§1)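 Broth microdilution in YAG medium (1% glucose, 1% ammonium chloride, 0.5% yeast extract) with spore inocula of 1-2×10^4 cfu/mL and doubling dilutions typically spanning 50-0.05 mg/L. Plates were incubated 24 hrs at 35° C and read by OD 485 nm. MIC is the lowest concentration giving >70% growth inhibition versus drug-free control, in mg/L.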

A. fumigatus 210 = assay: Minimum inhibitory concentration, YAG medium; assay type: cell-based, Aspergillus fumigatus
In short: as §1

A. terreus 49 = assay: Minimum inhibitory concentration, YAG medium; assay type: cell-based, Aspergillus terreus
In short: (§2)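 MIC in mg/L, from OD485 growth read-out after 24 hrs at 35° C in YAG medium with Aspergillus spores. Doubling dilutions in water made from a 5 mg/mL DMSO stock.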

Aspergillus flavus = assay: Minimum inhibitory concentration, YAG medium; assay type: cell-based
In short: as §2

Aspergillus niger = assay: Minimum inhibitory concentration, YAG medium; assay type: cell-based
In short: as §2

Aspergillus terreus = assay: Minimum inhibitory concentration, YAG medium; assay type: cell-based
In short: as §2

C. albicans = assay: Minimum inhibitory concentration, RPMI medium; assay type: cell-based
In short: (§3)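 Growth was measured by OD at 485 nm after 24-48 hrs at 35° C in RPMI 1640 medium. Compound was serially diluted twofold in water, starting from a 5 mg/mL DMSO stock solution.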

C. parapsilosis = assay: Minimum inhibitory concentration, RPMI medium; assay type: cell-based
In short: as §3

C. tropicalis = assay: Minimum inhibitory concentration, RPMI medium; assay type: cell-based
In short: as §3

Structure (SMILES) | MIC grade, A. FUMIGATUS, YAG media (Aspergillus fumigatus) | MIC grade, A. FUMIGATUS 210, YAG media (A. fumigatus 210) | MIC grade, A. TERREUS 49, YAG media (A. terreus 49) | MIC grade, A. FLAVUS, YAG media (Aspergillus flavus) | MIC grade, A. NIGER, YAG media (Aspergillus niger) | MIC grade, A. TERREUS, YAG media (Aspergillus terreus) | MIC grade, C. ALBICANS, RPMI media (C. albicans) | MIC grade, C. PARAPSILOSIS, RPMI media (C. parapsilosis) | MIC grade, C. TROPICALIS, RPMI media (C. tropicalis)
COCCCC1=NN=C(N)SC1 | 4 (4: <0.2 mg/L) | 4 (4: <0.2 mg/L) | 4 (4: <0.2 mg/L) | 4 (4: <0.2 mg/L) | 4 (4: <0.2 mg/L) | 3 (3: 0.2-1 mg/L) | 3 (3: 1-5 mg/L) | 3 (3: 1-5 mg/L) | 2 (2: 5-20 mg/L)
NC1=NN=C(c2ccc(Cl)c(Cl)c2)CS1 | 1 (1: ≥5 mg/L) | 1 (1: ≥5 mg/L) | 1 (1: ≥5 mg/L) | 1 (1: ≥5 mg/L) | 2 (2: 1-5 mg/L) | 1 (1: ≥5 mg/L) | 1 (1: ≥20 mg/L) | 1 (1: ≥20 mg/L) | 1 (1: ≥20 mg/L)
Cc1cc(C)cc(C2=NN=C(N)SC2)c1 | 1 (1: ≥5 mg/L) | 2 (2: 1-5 mg/L) | 1 (1: ≥5 mg/L) | 1 (1: ≥5 mg/L) | 2 (2: 1-5 mg/L) | 1 (1: ≥5 mg/L) | 1 (1: ≥20 mg/L) | 1 (1: ≥20 mg/L) | 1 (1: ≥20 mg/L)
CCCCOc1ccc(C2=NN=C(N)SC2)cc1 | 3 (3: 0.2-1 mg/L) | 3 (3: 0.2-1 mg/L) | 1 (1: ≥5 mg/L) | 3 (3: 0.2-1 mg/L) | 3 (3: 0.2-1 mg/L) | 3 (3: 0.2-1 mg/L) | 1 (1: ≥20 mg/L) | 1 (1: ≥20 mg/L) | 1 (1: ≥20 mg/L)
COCCCCCC1=NN=C(N)SC1 | 4 (4: <0.2 mg/L) | 4 (4: <0.2 mg/L) | 4 (4: <0.2 mg/L) | 4 (4: <0.2 mg/L) | 4 (4: <0.2 mg/L) | 4 (4: <0.2 mg/L) | 4 (4: <1 mg/L) | 4 (4: <1 mg/L) | 3 (3: 1-5 mg/L)
NC1=NN=C2c3ccccc3CCC2S1 (stereo not drawn) | 2 (2: 1-5 mg/L) | 1 (1: ≥5 mg/L) | 2 (2: 1-5 mg/L) | 1 (1: ≥5 mg/L) | 1 (1: ≥5 mg/L) | 1 (1: ≥5 mg/L) | 1 (1: ≥20 mg/L) | 1 (1: ≥20 mg/L) | 1 (1: ≥20 mg/L)
CCOC(=O)c1cccc(C2=NN=C(N)SC2)c1 | 1 (1: ≥5 mg/L) | 1 (1: ≥5 mg/L) | 1 (1: ≥5 mg/L) | 1 (1: ≥5 mg/L) | 1 (1: ≥5 mg/L) | 1 (1: ≥5 mg/L) | 1 (1: ≥20 mg/L) | 1 (1: ≥20 mg/L) | 1 (1: ≥20 mg/L)
CCOC(=O)c1ccc(C2=CSC(N)=NN2)cc1 | 4 (4: <0.2 mg/L) | 4 (4: <0.2 mg/L) | 3 (3: 0.2-1 mg/L) | 4 (4: <0.2 mg/L) | 4 (4: <0.2 mg/L) | 4 (4: <0.2 mg/L) | 3 (3: 1-5 mg/L) | 4 (4: <1 mg/L) | 2 (2: 5-20 mg/L)
